Results: patent US20010048964A1, “Low calorie fat compositions” (priority 2000, published 2001)

Assays:
[1] = molecular target: T1, porcine lipase (Sus scrofa, UniProt P00591); assay: Hydrolysis by pancreatic lipase, organic solvent system; type: in vitro ADME; details: organic solvent (t-amyl alcohol), 30° C., 20 h
T1 sequence (P00591 1-450): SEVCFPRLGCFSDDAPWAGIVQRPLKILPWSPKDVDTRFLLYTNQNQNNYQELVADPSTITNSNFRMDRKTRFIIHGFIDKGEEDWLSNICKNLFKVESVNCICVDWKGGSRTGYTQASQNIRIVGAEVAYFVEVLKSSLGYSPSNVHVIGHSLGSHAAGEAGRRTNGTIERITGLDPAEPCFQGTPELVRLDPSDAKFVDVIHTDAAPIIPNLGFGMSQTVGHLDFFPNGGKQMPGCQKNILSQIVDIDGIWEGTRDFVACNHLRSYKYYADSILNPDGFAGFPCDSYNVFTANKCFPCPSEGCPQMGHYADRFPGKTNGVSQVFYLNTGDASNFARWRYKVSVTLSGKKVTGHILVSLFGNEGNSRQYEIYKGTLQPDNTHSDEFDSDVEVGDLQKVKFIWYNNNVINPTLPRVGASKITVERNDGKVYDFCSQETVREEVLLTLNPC
Description: (§1) The digestibility of the acylated triglycerides of the present invention were done to compare with triolein. The in-vitro assays were done using two emulsion systems as in the following procedure.
Each digest was carried out with 300 mg of the fat/fat substitute, 9 ml of the t-amyl alcohol, 0.5 ml of Bis-Tris propane buffer (10 mM, pH 7.8) and 0.5 ml of porcine lipase (20 mg/ml). The reaction was incubated at 30° C. and the reaction stopped by adding 1 ml aliquots to 3 ml of isopropanol/heptane/sulfuric acid (40/10/1). The product was extracted with heptane and analyzed by GC and GC-MS at 360° C. The hydrolysis of the acetylated castor (hydrogenated) was 48% complete in 20 h and triolein was hydrolyzed to 69%.

[2] = molecular target: T1, porcine lipase; assay: Hydrolysis by pancreatic lipase, aqueous emulsion system; type: in vitro ADME; details: aqueous emulsion (HMPC, sodium cholate), 30 ° C.
Description: as §1
A mixture of 300 mg of the fat/fat substitute, 4 ml of Bis-Tris propane buffer (10 mM, pH 7.8), 5 ml of hydroxyproylmethylcellulose (HMPC, […]), 0.5 ml of sodium cholate (0.1M) were sonicated to disperse the fats and incubated at 30 ° C. Porcine lipase (0.5 ml, 20 mg/ml) was added. The analysis of the reaction was carried out as in the above organic solution assay. Acetylated castor (hydrogenated) was 70% hydrolyzed while triolein under similar conditions was 93% hydrolyzed.

[3] = Caloric availability, two week feeding study; type: in vivo; details: young male Sprague-Dawley rats, modified AIN-76 diet at 15% added fat level
Description: Caloric availability of the compounds are evaluated by the two week feeding study of young male Sprague-Dawley rats weighing approximately 50 to 60 gm. This caloric availability study as described described by Finley, et al. ((1994) J. Agric. Food Chem. 42:489-494) was modified to use smaller amounts of test materials. The feeding study was conducted using a modified AIN-76 diet at 15% added fat level and five test animals are used for each compound. Weight gains are monitored at days 0,3,7,10 and 14.

## CCCCCCC(CCCCCCCCCCC(=O)OCC(COC(=O)CCCCCCCCCCC(CCCCCC)OC(C)=O)OC(=O)CCCCCCCCCCC(CCCCCC)OC(C)=O)OC(C)=O (stereo not shown) [acetylated castor (hydrogenated), 12-acetyloxyoctadecanoic acid triglyceride]
[1]
  hydrolysis: 48%
[2]
  hydrolyzed: 70%
[3]
  caloric availability: 6 kcal/g

## CCCCCCCCCCCCCCCCCC(=O)OC(CCCCCC)CCCCCCCCCCCCC(=O)OCC(COC(=O)CCCCCCCCCCCCC(CCCCCC)OC(=O)CCCCCCCCCCCCCCCCC)OC(=O)CCCCCCCCCCCCCCCCC (stereo not shown) [distearoyl lesquerella oil-hydrogenated, 1,3-bis(14-octadecanoyloxy)eicosanoic acid-2-octadecanoic acid triglyceride]
[3]
  caloric availability: 5.6 kcal/g
